Converted amounts (≈) assume the structure as drawn. Where two headings read alike, the source gives them in different places. Bridge positions count the residues as written; N and C are the ends. Square brackets hold non-standard residues; d marks the D form. Peptide text beside a SMILES is read from it. * marks the point of attachment. Ileψ(thiazoline)Cys = CC[C@H](C)[C@H](N)C1=N[C@H](C(=O)*)CS1; dOrn = NCCC[C@@H](N)C(=O)O
Tests used:
[1] = test system: P. aeruginosa PAO1-LAC (wild type, empty cassette); test: microbe, parasite or virus in culture; assay type: cell-based; settings: at least three independent measurements
[2] = test system: P. aeruginosa PAO1-LAC-EcPore (hyperporinated); test: microbe, parasite or virus in culture; assay type: cell-based; settings: for MIC: PAO1-LAC-EcPore, at least three independent measurements; for Fold decrease of MIC (potentiation) by hyperporination: Pae: PAO1-LAC-EcPore vs parent
[3] = test system: P. aeruginosa PaΔ3-LAC (efflux-deficient); test: microbe, parasite or virus in culture; assay type: cell-based; settings: at least three independent measurements
[4] = test system: P. aeruginosa PaΔ3-LAC-EcPore (efflux-deficient, hyperporinated); test: microbe, parasite or virus in culture; assay type: cell-based; settings: for MIC: PaΔ3-LAC-EcPore, at least three independent measurements
[5] = test system: B. thailandensis Bt-RHA (wild type, empty cassette); test: microbe, parasite or virus in culture; assay type: cell-based
[6] = test system: B. thailandensis Bt-RHA-BtPore (hyperporinated); test: microbe, parasite or virus in culture; assay type: cell-based
[7] = test system: B. thailandensis BtΔ2-RHA (efflux-deficient); test: microbe, parasite or virus in culture; assay type: cell-based
[8] = test system: B. thailandensis BtΔ2-RHA-BtPore (efflux-deficient, hyperporinated); test: microbe, parasite or virus in culture; assay type: cell-based
[9] = test system: B. cepacia Bc-RHA (wild type, empty cassette); test: microbe, parasite or virus in culture; assay type: cell-based
[10] = test system: B. cepacia Bc-RHA-BtPore (hyperporinated); test: microbe, parasite or virus in culture; assay type: cell-based; settings: for MIC: Bc-RHA-BtPore; for Fold decrease of MIC (potentiation) by hyperporination: Bc: Bc-RHA-BtPore vs parent
[11] = test system: A. baumannii Ab-ARA (wild type, empty cassette); test: microbe, parasite or virus in culture; assay type: cell-based; settings: at least three independent measurements
[12] = test system: A. baumannii Ab-ARA-EcPore (hyperporinated); test: microbe, parasite or virus in culture; assay type: cell-based; settings: for MIC: Ab-ARA-EcPore, at least three independent measurements; for Fold decrease of MIC (potentiation) by hyperporination: Abau: Ab-ARA-EcPore vs parent
[13] = test system: A. baumannii AbΔ3-ARA (efflux-deficient); test: microbe, parasite or virus in culture; assay type: cell-based; settings: AbΔ3-ARA, at least three independent measurements
[14] = test system: A. baumannii AbΔ3-ARA-EcPore (efflux-deficient, hyperporinated); test: microbe, parasite or virus in culture; assay type: cell-based; settings: for MIC: AbΔ3-ARA-EcPore, at least three independent measurements
[15] = test system: B. thailandensis cells (Bt-RHA and derivatives)
[16] = test system: A. baumannii cells (Ab-ARA and derivatives); test: Fluorescent probe uptake assay, A. baumannii strains; settings: AbΔ3-ARA vs Ab-ARA, fluorescence
[17] = test system: P. aeruginosa cells (PAO1-LAC and derivatives); test: Fluorescent probe uptake assay, P. aeruginosa strains; settings: PΔ3-LAC-EcPore vs PAO1-LAC
[18] = Pseudomonas aeruginosa, read-out: MIC
[19] = Burkholderia cepacia, read-out: MIC
[20] = Acinetobacter baumannii, read-out: MIC

Compound: CC[C@H](C)[C@H](N)C1=N[C@H](C(=O)N[C@@H](CC(C)C)C(=O)N[C@H](CCC(=O)O)C(=O)N[C@H](C(=O)N[C@H]2CCCCNC(=O)[C@H](CC(N)=O)NC(=O)[C@@H](CC(=O)O)NC(=O)[C@H](Cc3cnc[nH]3)NC(=O)[C@@H](Cc3ccccc3)NC(=O)[C@H]([C@@H](C)CC)NC(=O)[C@@H](CCCN)NC2=O)[C@@H](C)CC)CS1 [Bacitracin] ({Ileψ(thiazoline)Cys}-L[dE]IK[dOrn]I[dF]H[dD]N; lactam 4-C)
- MIC [1, 18]: > 1020 µg/mL
- MIC [2, 18]: 64 µg/mL (≈ 45 µM)
- MIC [3, 18]: > 1020 µg/mL
- MIC [4, 18]: 64 µg/mL (≈ 45 µM)
- MIC ([5]; Burkholderia thailandensis): > 1020 µg/mL
- MIC ([6]; Burkholderia thailandensis): 1020 µg/mL (≈ 720 µM)
- MIC ([7]; Burkholderia thailandensis): 1020 µg/mL (≈ 720 µM)
- MIC ([8]; Burkholderia thailandensis): 8 µg/mL (≈ 5.62 µM)
- MIC [9, 19]: > 1020 µg/mL
- MIC [10, 19]: 16 µg/mL (≈ 11.2 µM)
- MIC [11, 20]: 256 µg/mL (≈ 180 µM)
- MIC [12, 20]: 32 µg/mL (≈ 22.5 µM)
- MIC [13, 20]: 512 µg/mL (≈ 360 µM)
- MIC [14, 20]: 64 µg/mL (≈ 45 µM)

Compound: C[C@@H](O)[C@H]1C(=O)N2C(C(=O)O)=C(S[C@@H]3CN[C@H](C(=O)N(C)C)C3)[C@H](C)[C@H]12 [Meropenem]
- MIC [1, 18]: 0.5 µg/mL (≈ 1.3 µM)
- Fold decrease of MIC (potentiation) by hyperporination [2]: 2-4 fold
- MIC [2, 18]: 0.25 µg/mL (≈ 0.652 µM)
- MIC [3, 18]: 0.125 µg/mL (≈ 0.326 µM)
- MIC [4, 18]: 0.03 µg/mL (≈ 0.0782 µM)
- MIC ([5]; Burkholderia thailandensis): 1 µg/mL (≈ 2.61 µM)
- MIC ([6]; Burkholderia thailandensis): 1 µg/mL (≈ 2.61 µM)
- MIC ([7]; Burkholderia thailandensis): 0.25 µg/mL (≈ 0.652 µM)
- MIC ([8]; Burkholderia thailandensis): 0.03 µg/mL (≈ 0.0782 µM)
- MIC [9, 19]: > 4 µg/mL
- Fold decrease of MIC (potentiation) by hyperporination [10]: > 32 fold
- MIC [10, 19]: 0.125 µg/mL (≈ 0.326 µM)
- MIC [11, 20]: 0.25 µg/mL (≈ 0.652 µM)
- Fold decrease of MIC (potentiation) by hyperporination [12]: 2-4 fold
- MIC [12, 20]: 0.063 µg/mL (≈ 0.164 µM)
- MIC [13, 20]: 0.125 µg/mL (≈ 0.326 µM)
- MIC [14, 20]: 0.063 µg/mL (≈ 0.164 µM)

Compound: c1ccc(Nc2cccc3ccccc23)cc1 [NPN, N-phenyl-1-naphthylamine]
- Change of intracellular accumulation of probe by inactivation of efflux [15]: higher levels of NPN accumulation than in hyperporinated cells
- Change of intracellular accumulation of probe by inactivation of efflux [16]: higher levels of NPN accumulation than in hyperporinated cells
- Probe levels in efflux-deficient hyperporinated cells vs parent [17]: only slightly higher than in PAO1-LAC cells

Compound: CO[C@@H]1[C@@H](OC(N)=O)[C@@H](O)[C@H](Oc2ccc3c(O)c(NC(=O)c4ccc(O)c(CC=C(C)C)c4)c(=O)oc3c2C)OC1(C)C [Novobiocin]
- MIC [1]: 512 µg/mL (≈ 836 µM)
- Fold decrease of MIC (potentiation) by hyperporination [2]: 16-32 fold
- MIC [2, 18]: 64 µg/mL (≈ 104 µM)
- MIC [3, 18]: 32 µg/mL (≈ 52.2 µM)
- MIC [4, 18]: 4 µg/mL (≈ 6.53 µM)
- MIC ([5]; Burkholderia thailandensis): 8 µg/mL (≈ 13.1 µM)
- Fold decrease of MIC (potentiation) by hyperporination [6]: 2 fold
- MIC ([6]; Burkholderia thailandensis): 4 µg/mL (≈ 6.53 µM)
- MIC ([7]; Burkholderia thailandensis): 0.25 µg/mL (≈ 0.408 µM)
- MIC ([8]; Burkholderia thailandensis): 0.008 µg/mL (≈ 0.0131 µM)
- MIC [9, 19]: 8 µg/mL (≈ 13.1 µM)
- Fold decrease of MIC (potentiation) by hyperporination [10]: 16-32 fold
- MIC [10, 19]: 0.125 µg/mL (≈ 0.204 µM)
- MIC [11, 20]: 3.1 µg/mL (≈ 5.06 µM)
- Fold decrease of MIC (potentiation) by hyperporination [12]: 2 fold
- MIC [12, 20]: 1.56 µg/mL (≈ 2.55 µM)
- MIC [13, 20]: 0.025 µg/mL (≈ 0.0408 µM)
- MIC [14, 20]: 0.025 µg/mL (≈ 0.0408 µM)

Compound: Oc1cc(Cl)ccc1Oc1ccc(Cl)cc1Cl [Triclosan]
- MIC [1, 18]: 1020 µg/mL (≈ 3540 µM)
- MIC [2, 18]: 1020 µg/mL (≈ 3540 µM)
- MIC [3, 18]: 32 µg/mL (≈ 111 µM)
- MIC [4, 18]: 8 µg/mL (≈ 27.6 µM)
- MIC ([5]; Burkholderia thailandensis): 120 µg/mL (≈ 414 µM)
- MIC ([6]; Burkholderia thailandensis): 30 µg/mL (≈ 104 µM)
- MIC ([7]; Burkholderia thailandensis): 0.12 µg/mL (≈ 0.414 µM)
- MIC ([8]; Burkholderia thailandensis): 0.06 µg/mL (≈ 0.207 µM)
- MIC [9, 19]: > 120 µg/mL
- MIC [10, 19]: 60 µg/mL (≈ 207 µM)
- MIC [11, 20]: 0.125 µg/mL (≈ 0.432 µM)
- MIC [12, 20]: 0.063 µg/mL (≈ 0.218 µM)
- MIC [13, 20]: 0.002 µg/mL (≈ 0.00691 µM)
- MIC [14, 20]: 0.001 µg/mL (≈ 0.00345 µM)

Compound: CN[C@H](CC(C)C)C(=O)N[C@H]1C(=O)N[C@@H](CC(N)=O)C(=O)N[C@H]2C(=O)N[C@H]3C(=O)N[C@H](C(=O)N[C@H](C(=O)O)c4cc(O)cc(O)c4-c4cc3ccc4O)[C@H](O)c3ccc(c(Cl)c3)Oc3cc2cc(c3O[C@@H]2O[C@H](CO)[C@@H](O)[C@H](O)[C@H]2O[C@H]2C[C@](C)(N)[C@H](O)[C@H](C)O2)Oc2ccc(cc2Cl)[C@H]1O [Vancomycin]
- MIC [1, 18]: 1020 µg/mL (≈ 707 µM)
- MIC [2, 18]: 128 µg/mL (≈ 88.3 µM)
- MIC [3, 18]: 1020 µg/mL (≈ 707 µM)
- MIC [4, 18]: 64 µg/mL (≈ 44.2 µM)
- MIC ([5]; Burkholderia thailandensis): > 1020 µg/mL
- MIC [6]: 256 to 512 µg/mL
- MIC ([7]; Burkholderia thailandensis): > 1020 µg/mL
- MIC ([8]; Burkholderia thailandensis): 4 to 8 µg/mL (≈ 2.76 to 5.52 µM)
- MIC [9, 19]: > 1020 µg/mL
- MIC [10, 19]: 8 µg/mL (≈ 5.52 µM)
- MIC [11, 20]: 1020 µg/mL (≈ 707 µM)
- MIC [12, 20]: 128 µg/mL (≈ 88.3 µM)
- MIC [13, 20]: 1020 µg/mL (≈ 707 µM)
- MIC [14, 20]: 128 µg/mL (≈ 88.3 µM)

Compound: Cc1c(N)nc([C@H](CC(N)=O)NC[C@H](N)C(N)=O)nc1C(=O)N[C@H](C(=O)N[C@H](C)[C@@H](O)[C@H](C)C(=O)N[C@H](C(=O)NCCC1=N[C@@H](c2nc(C(=O)NCCCCN=C(N)N)cs2)CS1)[C@@H](C)O)[C@@H](O[C@@H]1O[C@@H](CO)[C@@H](O)[C@H](O)[C@@H]1O[C@H]1O[C@H](CO)[C@@H](O)[C@H](OC(N)=O)[C@@H]1O)c1cnc[nH]1 [Zeocin]
- MIC [1]: 512 µg/mL (≈ 359 µM)
- MIC [2]: 32 to 64 µg/mL
- MIC [3]: 16 µg/mL (≈ 11.2 µM)
- Fold change of MIC by efflux inactivation plus hyperporination ([4]; PaeΔ3-LAC-Pore vs parent): 256 fold
- MIC [4]: 2 µg/mL (≈ 1.4 µM)
- MIC [5]: 512 µg/mL (≈ 359 µM)
- MIC [6]: 128 µg/mL (≈ 89.7 µM)
- MIC [7]: 2 µg/mL (≈ 1.4 µM)
- Fold change of MIC by efflux inactivation plus hyperporination [8]: 4096 fold
- MIC [8]: 0.12 µg/mL (≈ 0.0841 µM)
- MIC [9]: >1024 µg/mL
- MIC [10]: 128 µg/mL (≈ 89.7 µM)
- MIC [11]: 8 µg/mL (≈ 5.6 µM)
- MIC [12]: 0.5 µg/mL (≈ 0.35 µM)
- MIC [13]: 1 µg/mL (≈ 0.701 µM)
- Fold change of MIC by efflux inactivation plus hyperporination ([14]; AbΔ3-ARA-EcPore vs Ab-ARA): 64 fold
- MIC [14]: 0.125 µg/mL (≈ 0.0876 µM)

Compound: Polymyxin B
- MIC [1]: 1.5 µg/mL
- MIC [2]: 1.5 µg/mL
- MIC [3]: 1.5 µg/mL
- MIC [4]: 1.5 µg/mL
- MIC [5]: >1024 µg/mL
- MIC [6]: >1024 µg/mL
- MIC [7]: >1024 µg/mL
- MIC [8]: 128 µg/mL
- MIC [9]: >1024 µg/mL
- MIC [10]: 512 µg/mL
- MIC [11]: 0.25 µg/mL
- MIC [12]: 0.25 µg/mL
- MIC [13]: 0.125 µg/mL
- MIC [14]: 0.125 µg/mL

Compound: Tobramycin [Tobramycin + Mg^2+]
- MIC [1]: 2 µg/mL
- MIC [2]: 1 µg/mL
- MIC [3]: 0.5 µg/mL
- MIC [4]: 0.5 µg/mL
- MIC [5]: 64 µg/mL
- MIC [6]: 64 µg/mL
- MIC [7]: 1 µg/mL
- MIC [8]: 1 µg/mL
- MIC [9]: 32 to 64 µg/mL
- MIC [10]: 4 µg/mL
- MIC [11]: 4 µg/mL
- MIC [12]: 2 µg/mL
- MIC [13]: 4 µg/mL
- MIC [14]: 2 µg/mL

From patent US11021521B2, “Pore-modified gram-negative bacteria and uses thereof” (priority 2015, dated 2021)
